We go through five compounds from patent US10555936B2, “Chemotherapeutic compositions and methods for treating human gliomas” (The Methodist Hospital, priority 2011, dated 2020).

One test concerns MAO-B. Conditions: previously-published work; cited from earlier work.
Test [1] concerns BT-111. Nature of the test: Total cell protein mass, BCA/SDS method. The test is classed as cell-based, human. As to conditions: BT-111, with 2 μM selegiline, 24 hr.
The subject of test [2] is BT-115. Nature of the test: Total cell protein mass, BCA/SDS method. The test is classed as cell-based, human. Conditions: BT-115, with 2 μM selegiline, 24 hr.
For test [3], the system named is BT-115. As to the kind of experiment: Cell death, Hoechst viability stain. The test is classed as cell-based, human. Conditions: BT-115, high concentrations, 2 μM selegiline, 24 hrs.
Test [4] has as its system BT-111. Nature of the test: Cell death, Hoechst viability stain. The test is classed as cell-based, human. As to conditions: BT-111, high concentrations, 2 μM selegiline, 24 hrs.
Another test has as its target T1, hMAO-A (Homo sapiens, UniProt P21397).
T1 sequence (P21397 1-527): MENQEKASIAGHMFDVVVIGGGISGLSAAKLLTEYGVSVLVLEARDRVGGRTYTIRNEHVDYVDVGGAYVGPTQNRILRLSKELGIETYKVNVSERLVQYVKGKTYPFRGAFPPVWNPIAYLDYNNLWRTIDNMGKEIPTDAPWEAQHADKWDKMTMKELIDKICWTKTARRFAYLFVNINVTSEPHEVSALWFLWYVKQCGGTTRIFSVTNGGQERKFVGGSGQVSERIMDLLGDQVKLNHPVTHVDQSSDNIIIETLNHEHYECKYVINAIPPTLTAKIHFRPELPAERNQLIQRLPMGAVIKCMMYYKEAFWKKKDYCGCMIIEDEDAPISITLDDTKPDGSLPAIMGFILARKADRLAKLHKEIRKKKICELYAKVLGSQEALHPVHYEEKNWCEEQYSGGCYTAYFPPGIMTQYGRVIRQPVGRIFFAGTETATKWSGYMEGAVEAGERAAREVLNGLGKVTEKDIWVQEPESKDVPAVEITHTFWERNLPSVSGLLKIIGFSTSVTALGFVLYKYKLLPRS
As to conditions: Fierro and co-workers; cited from earlier work.

The next test concerns BT-111 cells. The test is classed as cell-based, human.

Regarding “1-methyl-4-(3-methylfuran-yl)-1,2,3,6-tetrahydropyridine”, the MAO-B substrate quality entry in the test on MAO-B is listed as “excellent MAO-B substrates”.
On to `CN1CC=C(C2CCCCC2)CC1` [4-cyclohexyl-1-methyl-1,2,3,6-tetrahydropyridine], for which the MAO-B substrate quality entry with MAO-B is given as “excellent MAO-B substrates”.
As for `CCc1c2c(nc3ccc(OCCCN)cc13)-c1cc3c(c(=O)n1C2)COC(=O)[C@]3(O)CC` [APE-SN38, 7-ethyl-10-(3-aminprop)-oxy-camptothecine], the protection by selegiline result in the test on BT-111 [1] and in the test with BT-115 [2] was “almost complete protection” throughout. Moreover, the “cell death on co-incubation with selegiline” value with BT-115 [3] and with BT-111 [4] was “could be arrested” throughout.
`CSc1ccc(CC(C)N)cc1` (centres unmarked) [MTA]: the “times better at inhibiting hMAO-A than hMAO-B” value at hMAO-A is over 1000 times.
In the case of `C#CCN(C)[C@H](C)Cc1ccccc1` [Selegiline], the “effect on mitochondrial membrane potential” value in the test on BT-111 cells is given as “no effect”.
